Assay results reported in patent US12350337B2, “Polymeric drug delivery conjugates and methods of making and using thereof” (UNIVERSITY OF UTAH RESEARCH FOUNDATION, priority 2019, dated 2025).
Where no end group is shown, it is not given here. [ ]: non-standard residue; d: D form.

Columns and labels:
4T1 tumor = tested on: 4T1 tumor; design: species or system BALB/c mice; conditions: mouse, in vivo, iv
Method: (§1) Fluorescence intensities were normalized to the same scale. Black circles indicate the tumor. (B) In vivo tumor cell uptake of EPI after the mice were treated with either free EPI or KT-1 (10 mg/kg EPI equivalence) at 1, 4, 7 days post injection. Data represent n=5 independently analyzed mice/group. […] Blue: cell nuclei; Green: EPI; Red: CRT. […] Data are represented as box plots (whiskers, 5th to 95th percentile). n=4 for saline and EPI treatments, and n=6 for KT-1 treatment, from a representative experiment from two independent experiments. * P<0.05 by student's t-test.
KT-1, a degradable diblock HPMA copolymer-EPI conjugate with narrow polydispersity, was synthesized via one step reversible addition-fragmentation chain transfer (RAFT) polymerization and characterized in FIG. 2B and the techniques provided in Yang et al., J. Controlled Release, 218 (2015) 36-44. KT-1 has long-lasting retention in tumors. […] In contrast, KT-1-Cy5 profoundly accumulated at tumor site, which peaked at 24 h and lasted for at least 196 h.

4T1 cells [1] = assay: Internalization of surface bound P-(PPA)x-Cy3; format: cell-based, murine; conditions: 37° C., compared with low-valence P-(PPA)1.3-Cy3 and P-Cy3
Method: Then surface PD-L1 along with receptor-bound conjugates were removed by proteinase-K digestion (0.4 mg/mL, 20 min, 37° C.), and flow cytometry was used to measure the internalized conjugates. Experiments were conducted in triplicate.
(§2) Together, these findings established the polymer-facilitated crosslinking of surface PD-L1 as a potential therapeutic strategy to produce prolonged elimination of PD-L1, rather than the transient blocking afforded by standard anti-PD-L1 antibodies.

4T1 tumors [2] = assay: 4T1 tumor growth, survival and endpoint tumor immune analysis (EPI, KT-1, α-CD8, α-PD-L1 combinations); format: in vivo, BALB/c mice
4T1 tumors [3] = assay: In vivo ICD induction and immune cell analysis after two doses; design: species or system BALB/c mice; conditions: Day 15
Method: as §1
Having shown tumor-targeted delivery of KT-1, KT-1's impact on inducing ICD that implicates calreticulin (CRT) expression and high-mobility group box 1 (HMGB1) release was examined. CRT exposed on the surfaces of immunogenically dying tumor cells sends dendritic cells (DCs) an “eat me” signal to facilitate phagocytosis by antigen-presenting cells (APCs), while released HMGB1 functions as the “danger” signal and stimulates optimal antigen presentation to T cells. […] In FIG. 3D-E, BALB/c mice bearing non-immunogenic 4T1 tumors, were given two intravenous doses (on Days 7 and 14 after tumor implantation) of treatments with saline, EPI or KT-1 (first EPI equivalence dose 10 mg/kg followed by second dose 5 mg/kg).
This could be the result of efficiently triggering ICD-associated signals in tumors. […]

PD-L1 [4] = biological target: T1, PD-L1 (Mus musculus, UniProt Q9EP73); assay: PPA specificity to PD-L1: inhibition of Cy5-labeled anti-PD-L1 antibody binding on 4T1 cells; design: species or system murine; conditions: 0.2 mM, pretreatment 1 h, co-incubation 1 h, 4° C.
T1 construct: Specificity of PPA towards PD-L1 on 4T1 cells; endogenous in cells; host or cells: 4T1 cells
T1 sequence (Q9EP73 19-290): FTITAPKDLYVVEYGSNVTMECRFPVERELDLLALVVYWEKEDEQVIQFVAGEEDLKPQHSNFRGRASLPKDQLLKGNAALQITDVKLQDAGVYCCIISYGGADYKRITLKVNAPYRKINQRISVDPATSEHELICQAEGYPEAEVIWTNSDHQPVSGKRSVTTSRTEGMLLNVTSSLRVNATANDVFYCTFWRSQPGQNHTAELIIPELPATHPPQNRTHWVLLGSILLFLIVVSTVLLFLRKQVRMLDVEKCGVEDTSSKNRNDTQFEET
Method: (A) The PD-1/PD-L1 interaction mediated by PPA from immune escape to cancer immunotherapy. (B) Specificity of PPA towards PD-L1 on 4T1 cells. Negative control: Cy5-labeled anti-CD20 mAb rituximab (RTX) incubation with 4T1 cells at 4° C. for 1 h; Positive control: Cy5-labeled anti-PD-L1 antibody incubation with 4T1 cells at 4° C. for 1 h; PPA: 0.2 mM PPA pretreatment for 1 h and co-incubation with Cy5-labeled anti-PD-L1 antibody for 1 h 4° C. […] (C) Synthesis scheme and characterization of Cy3-labeled HPMA copolymer-PPA conjugates with different PPA valences.
PD-L1 peptide antagonist (PPA), with the amino acid sequence shown in FIG. 8A, was reported to bind PD-L1 with high affinity, and further confirmed in FIG. 8B. To achieve multimeric PD-L1 crosslinking, PPA was grafted onto HPMA copolymer to generate the multivalent polymer-PPA conjugates. By varying the ratio of the reaction components, a panel of conjugates was prepared with different valences for subsequent evaluation. Three conjugates with Cy3 labeled backbone were prepared: P-(PPA)14-Cy3, P-(PPA)4.3-Cy3, P-(PPA)1.3-Cy3, with the subscript denotes the valence. Additionally, unlabeled MPPA for receptor depletion studies was prepared with degradable backbone.

PD-L1 [5] = biological target: T1, PD-L1; conditions: cited from earlier work
4T1 tumors [6] = assay: In vivo tumoral PD-L1 expression and tumor-infiltrating lymphocytes after KT-1 followed by PD-L1 blockade; design: species or system BALB/c mice; conditions: for tumoral PD-L1 expression: KT-1 Days 7 and 14, PD-L1 blockade Day 15, two days post blockade
Method: (§3) (A) Schematic illustration of inhibiting PD-L1 recycling by MPPA crosslinking. (B) Lysosome colocalization with α-PD-L1-Cy5 or Cy3-labeled MPPA (P-(PPA)14-Cy3) after 3 h treatments at 37° C. Blue: nuclei; Red: Cy3/Cy5; Green: lysosome. (C) Whole cell PD-L1 expression with or without lysosome hydrolysis inhibition by E-64. 4T1 cells were treated with α-PD-L1, PPA, or MPPA for 3 h in the absence (−) or presence (+) of E-64 cysteine protease inhibitor. Afterward, cells were further incubated in cell culture medium for another 24 h, prior to PD-L1 quantification. (D) Time-dependent recovery of surface PD-L1. […] (E) In vivo tumoral PD-L1 expression, and (F) representative flow cytometry analysis plots of CD3+CD8+CTLs and CD4+ Foxp3+ Tregs after KT-1 and MPPA combination treatment as indicated by arrows in (E). n=3 in (C) and (D), and n=5 in (E) and (F), from a representative experiment from two independent experiments.
To validate the PD-L1 depletion in vivo, mice bearing 4T1-tumor were treated with α-PD-L1, PPA, or MPPA on Day 15, following two doses of KT-1 treatment on Day 7 and 14 (FIG. 7E). Tumoral PD-L1 expression and tumor-infiltrating lymphocytes were studied two days post PD-L1 blockade.

4T1 tumors [7] = assay: 4T1 tumor therapy with PPA, MPPA and KT-1 combinations; format: in vivo, BALB/c mice
Text: (B) Individual tumor volume, (C) body weight change, and (D) survival rate in 4T1-tumor bearing BALB/c mice over time after different treatments (n=5-10). (E) Individual tumor volume measurement after naive control mice or KT-1→MPPA treated CR mice in (D) were subcutaneously re-challenged with 4T1 or CT26 cells (n=5). (F) The representative scatter plots of the percentage of tumor cell-reactive T cells (IFN-γ+CD8+) among PBMCs from KT-1→MPPA treated CR mice in (D) against 4T1 cells or CT26 cells (n=5). (G) Mice survival curve after re-challenge by i.v. injection of 4T1 cells after initial KT-1→MPPA treatment (n=5). (H) CD44+CD62L-memory effector CD8+ T cells in spleen after 4T1 cell i.v. re-challenge (n=5).

4T1 cells [8] = assay: Lysosome colocalization (confocal); format: cell-based, murine; conditions: 3 h at 37° C.
Method: as §3, §2

PD-L1 [9] = biological target: T1, PD-L1; assay: Whole cell PD-L1 expression with or without E-64; format: cell-based, murine
Method: as §3, §2

[10] = tested on: LLC-1 Lewis lung carcinoma cells; assay: Metastatic LLC-1 Lewis lung carcinoma model
Method: (I) Survival rate of mice after indicated treatments (n=5). C57BL/6 mice were intravenously inoculated with 2×10^5 LLC-1 Lewis lung carcinoma cells on day 0. Then mice were treated as described in (A). (J) The fold increases in the percentage tumor cell-reactive T cells (IFN-γ+CD8+) among PBMCs from mice in (I) on Day 25 against LLC-1 cells. (K) CD44+CD62L-memory effector CD8+ T cells in spleen from mice in (I) on Day 25. (L) Tumor burden in lungs from mice in (I) on Day 25, depicted as lung weight and hematoxylin-eosin histology analysis of lung lobe sections.* P<0.05, n.s, not significant, one-way ANOVA with Tukey's multiple comparison test.

CT26 tumors = assay: Subcutaneous CT26 colon carcinoma model; format: in vivo, BALB/c mice
Text: Blue: cell nuclei; Green: EPI; Red: CRT.
Moreover, KT-1→MPPA further improved the anti-tumor efficacy, and outperformed KT-1→α-PD-L1 (20% complete tumor regression), leading to complete regression of established tumors in 60% of animals (FIG. 15A).

[11] = 3 weekly treatments, EPI equivalence 10 mg/kg then two doses 5 mg/kg
[12] = KT-1 Days 7 and 14, PD-L1 blockade Day 15

**Q.** With cyanine 5 [Cy5] as the compound, how does the “tumor retention (in words)” value (4T1 tumor) read?
**A.** rapidly eliminated from the tumor and barely detectable after 2 h post-injection

**Q.** For “P-(PPA)4.3-Cy3 ([dN][dY][dS][dK][dP][dT][dD][dR][dQ][dY][dH][dF]; also: conjugated to (PPA)4.3 and Cy3, places not given here)”, which internalization rate (4T1 cells [1]) is on record?
**A.** accelerated internalization rates

**Q.** For “P-(PPA)14-Cy3 ([dN][dY][dS][dK][dP][dT][dD][dR][dQ][dY][dH][dF]; also: conjugated to (PPA)14 and Cy3, places not given here)”, which internalization rate (4T1 cells [1]) is on record?
**A.** accelerated internalization rates

**Q.** Which animal survival (4T1 tumors [2]; [11]) does the source give for `COc1cccc2c1C(=O)c1c(O)c3c(c(O)c1C2=O)C[C@@](O)(C(=O)CO)C[C@@H]3O[C@H]1C[C@H](N)[C@@H](O)[C@H](C)O1` [EPI, Epirubicin] here?
**A.** limited effect

**Q.** What about the tumor growth (4T1 tumors [2]; [11]) of the same compound?
**A.** limited effect on controlling tumor

**Q.** What about the “tumor PD-L1 expression after chemotherapy” value (4T1 tumors [2]; endpoint of 3 weekly treatments) of the same compound?
**A.** adaptively enriched

**Q.** And the “frequency of CD11c+CD11b+Ly6c+CD86+ cells in tumor-draining lymph nodes” value (4T1 tumors [3])?
**A.** failed to generate the subset of CD11c+CD11b+Ly6c+ DCs

**Q.** With NYSKPTDRQYHF [PPA] as the compound, how does the “cell surface binding of anti-PD-L1 antibody after pretreatment” value (PD-L1 [4]) read?
**A.** significantly inhibited

**Q.** And the “binding to PD-L1 (reported)” value (PD-L1 [5])?
**A.** high affinity

**Q.** What about the Tregs in tumors (4T1 tumors [6]; [12]) of the same compound?
**A.** depleted Tregs

**Q.** And the “tumor infiltration of CTLs” value (4T1 tumors [6]; [12])?
**A.** did not further enhance tumor infiltration of CTLs

**Q.** What about the “tumoral PD-L1 expression” value (4T1 tumors [6]) of the same compound?
**A.** downregulated PD-L1 expression

**Q.** And the “tumor growth / therapeutic efficacy” value (4T1 tumors [7])?
**A.** barely delayed tumor growth

**Q.** What does the source list for “MPPA: backbone-degradable HPMA copolymer grafted with multiple copies of PD-L1 peptide antagonist PPA, valence 12.6 (CNYSKPTDRQYHF)”?
**A.** lysosome colocalization (4T1 cells [8]): substantial MPPA internalized into lysosome; PD-L1 depletion (PD-L1 [9]; 24 h post cell binding, without E-64): depleted PD-L1 to a higher degree than α-PD-L1; PD-L1 depletion in the presence of E-64 (PD-L1 [9]; E-64 cysteine protease inhibitor present): alleviated MPPA-triggered PD-L1 depletion; median survival ([10]; C57BL/6 mice, i.v. LLC-1 cells): 28 days; reactive IFN-γ+CD8+ T cells in PBMCs and CD8+CD62L-CD44+ effector memory T cells in spleen ([10]; Day 25): none of the treatments with saline, α-PD-L1, or MPPA increased the number; tumor growth (CT26 tumors; CT26, KT-1 days 7, 14, 21, anti-PD-L1 therapy days 15, 22): marginal effect in inhibiting tumor growth; PD-L1 expression in CT26 tumors (CT26 tumors; Day 17, after KT-1 Days 7 and 14, one dose Day 15): more profound decrease in PD-L1 expression than α-PD-L1; tumor infiltration of CTLs (4T1 tumors [6]; [12]): did not further enhance tumor infiltration of CTLs; tumoral PD-L1 expression (4T1 tumors [6]): further reduction in PD-L1 expression; tumor growth / therapeutic efficacy (4T1 tumors [7]): slightly better therapeutic efficacy than PPA
